Experimental data taken from patent publication US10941157B2, “Pesticidal compositions and uses thereof” (Gilead Apollo, LLC, priority 2015, dated 2021).
In brackets after ≈: the same amount, converted by molar mass. Where two headings read alike, the source gives them in different places.

Experiments:
Type in all cases: cell-based
[1] = test system: Diplodia maydis (Dm); assay: In vitro pathogen growth inhibition assay, Dm; settings: Stenocarpella maydis, 48 h
Summary of the method: (§1)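 Spores in 17% V8 liquid medium, or 1.5 mm Rs mycelial plugs in ¼ PDB, incubated with compound; final concentration checked by OD600 for precipitation. OD readings at 24 and 48 h, blank-subtracted, plus visual ratings; value is concentration giving ≥90% growth inhibition.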

[2] = test system: Fusarium virguliforme (Fv); assay: In vitro pathogen growth inhibition assay, Fv
Summary of the method: as §1

[3] = test system: Collectotrichum graminicola (Cg); assay: In vitro pathogen growth inhibition assay, Cg; settings: 48 h
Summary of the method: as §1

[4] = test system: Fusarium moniliforme (Fm); assay: In vitro pathogen growth inhibition assay, Fm; settings: Fusarium verticillioides
Summary of the method: as §1

[5] = test system: Septoria tritici (St); assay: In vitro pathogen growth inhibition assay, St; settings: Zymoseptoria tritici, 48 h
Summary of the method: as §1

[6] = test system: Botrtyis cinerea (Bc); assay: In vitro pathogen growth inhibition assay, Bc; settings: 48 h
Summary of the method: as §1

[7] = test system: Phytophthora capsici (Pc); assay: In vitro pathogen growth inhibition assay, Pc; settings: 48 h
Summary of the method: as §1

[8] = test system: Rhizoctonia solani (Rs); assay: In vitro pathogen growth inhibition assay, Rs (mycelial plugs); settings: Rhizoctonia solani, 48 h
Summary of the method: as §1

[9] = ≥90% growth inhibition, 48 hours, vs 2% DMSO control, read-out: Compound Concentration (ppm) sufficient for ≥90% inhibition of Dm
[10] = ≥90% growth inhibition, 48 hours, vs 2% DMSO control, read-out: Compound Concentration (ppm) sufficient for ≥90% inhibition of Fv
[11] = ≥90% growth inhibition, 48 hours, vs 2% DMSO control, read-out: Compound Concentration (ppm) sufficient for ≥90% inhibition of Cg
[12] = ≥90% growth inhibition, 48 hours, vs 2% DMSO control, read-out: Compound Concentration (ppm) sufficient for ≥90% inhibition of Fm
[13] = ≥90% growth inhibition, 48 hours, vs 2% DMSO control, read-out: Compound Concentration (ppm) sufficient for ≥90% inhibition of St
[14] = ≥90% growth inhibition, 48 hours, vs 2% DMSO control, read-out: Compound Concentration (ppm) sufficient for ≥90% inhibition of Bc
[15] = ≥90% growth inhibition, 48 hours, vs 2% DMSO control, read-out: Compound Concentration (ppm) sufficient for ≥90% inhibition of Pc
[16] = ≥90% growth inhibition, mycelial plugs, 48 hours, vs 2% DMSO control, read-out: Compound Concentration (ppm) sufficient for ≥90% inhibition of Rs

IC90 [1, 9] [µg/mL]	IC90 [2, 10] [µg/mL]	IC90 [3, 11] [µg/mL]	IC90 [4, 12] [µg/mL]	IC90 [5, 13] [µg/mL]	IC90 [6, 14] [µg/mL]	IC90 [7, 15] [µg/mL]	IC90 [8, 16] [µg/mL]	IC90 ([1]; concentration sufficient to ≥90% inhibition of growth, 48 hours vs 2% DMSO control, read-out: Compound Concentration (ppm) for ≥90% inhibition, Dm) [µg/mL]	IC90 ([2]; concentration sufficient to ≥90% inhibition of growth, 48 hours vs 2% DMSO control, read-out: Compound Concentration (ppm) for ≥90% inhibition, Fv) [µg/mL]	IC90 ([3]; concentration sufficient to ≥90% inhibition of growth, 48 hours vs 2% DMSO control, read-out: Compound Concentration (ppm) for ≥90% inhibition, Cg) [µg/mL]	IC90 ([4]; concentration sufficient to ≥90% inhibition of growth, 48 hours vs 2% DMSO control, read-out: Compound Concentration (ppm) for ≥90% inhibition, Fm) [µg/mL]	IC90 ([5]; concentration sufficient to ≥90% inhibition of growth, 48 hours vs 2% DMSO control, read-out: Compound Concentration (ppm) for ≥90% inhibition, St) [µg/mL]	IC90 ([6]; concentration sufficient to ≥90% inhibition of growth, 48 hours vs 2% DMSO control, read-out: Compound Concentration (ppm) for ≥90% inhibition, Bc) [µg/mL]	IC90 ([7]; concentration sufficient to ≥90% inhibition of growth, 48 hours vs 2% DMSO control, read-out: Compound Concentration (ppm) for ≥90% inhibition, Pc) [µg/mL]	IC90 ([8]; concentration sufficient to ≥90% inhibition of growth, 48 hours vs 2% DMSO control, read-out: Compound Concentration (ppm) for ≥90% inhibition, Rs) [µg/mL]	SMILES
≥ 10	10 (≈ 17.6 µM)	10 (≈ 17.6 µM)	0.4 (≈ 0.702 µM)	> 50	2 (≈ 3.51 µM)	> 50	2 (≈ 3.51 µM)	–	–	–	–	–	–	–	–	CCNC(=O)[C@H](C)n1c(=O)c2c(C)c(-n3nccn3)sc2n(C[C@H](OCCC#N)c2cc(F)ccc2OC)c1=O [Compound I-290]
–	–	–	–	–	–	–	–	50 (≈ 94.2 µM)	50 (≈ 94.2 µM)	> 50	10 (≈ 18.8 µM)	> 50	50 (≈ 94.2 µM)	> 50	2 (≈ 3.77 µM)	CCNC(=O)C(C)(C)n1c(=O)c2c(C)c(-n3nccn3)sc2n(C[C@@H](O)c2cc(F)ccc2OC)c1=O [Compound I-291]
> 50	50 (≈ 77.9 µM)	> 50	2 (≈ 3.12 µM)	> 50	10 (≈ 15.6 µM)	> 50	> 50	–	–	–	–	–	–	–	–	COCCO[C@@H](Cn1c(=O)n(C(C)(C)C(=O)NC2CCCCC2)c(=O)c2c(C)c(-n3cccn3)sc21)c1cc(F)ccc1OC [Compound I-293]
10 (≈ 19.6 µM)	0.08 (≈ 0.157 µM)	10 (≈ 19.6 µM)	0.4 (≈ 0.783 µM)	> 50	0.4 (≈ 0.783 µM)	> 50	2 (≈ 3.92 µM)	–	–	–	–	–	–	–	–	COc1ccccc1CCn1c(=O)n(C(C)(C)C(=O)NC(C)C)c(=O)c2c(C)c(-n3nccn3)sc21 [Compound I-294]
10 (≈ 17.6 µM)	2 (≈ 3.52 µM)	2 (≈ 3.52 µM)	0.4 (≈ 0.703 µM)	> 50	2 (≈ 3.52 µM)	> 50	2 (≈ 3.52 µM)	–	–	–	–	–	–	–	–	CCNC(=O)[C@@H](C)n1c(=O)c2c(C)c(-n3cccn3)sc2n(C[C@H](OCCC#N)c2cc(F)ccc2OC)c1=O [Compound I-295]
10 (≈ 18.9 µM)	2 (≈ 3.78 µM)	2 (≈ 3.78 µM)	2 (≈ 3.78 µM)	> 50	2 (≈ 3.78 µM)	> 50	2 (≈ 3.78 µM)	–	–	–	–	–	–	–	–	COc1ccc(F)cc1CCn1c(=O)n(C(C)(C)C(=O)NC(C)C)c(=O)c2c(C)c(-n3nccn3)sc21 [Compound I-296]
> 50	> 50	10 (≈ 17.4 µM)	2 (≈ 3.48 µM)	> 50	10 (≈ 17.4 µM)	> 50	> 50	–	–	–	–	–	–	–	–	CCNC(=O)[C@@H](C)n1c(=O)c2c(C)c(C(=O)OCC)sc2n(C[C@H](OCCC#N)c2cc(F)ccc2OC)c1=O [Compound I-297]
≥ 10	2 (≈ 3.75 µM)	10 (≈ 18.7 µM)	2 (≈ 3.75 µM)	> 50	2 (≈ 3.75 µM)	> 50	> 50	–	–	–	–	–	–	–	–	CCOC(=O)c1sc2c(c1C)c(=O)n(C(C)(C)C(=O)NC(C)C)c(=O)n2CCc1cc(F)ccc1OC [Compound I-298]
50 (≈ 81.5 µM)	2 (≈ 3.26 µM)	10 (≈ 16.3 µM)	0.4 (≈ 0.652 µM)	> 50	2 (≈ 3.26 µM)	> 50	50 (≈ 81.5 µM)	–	–	–	–	–	–	–	–	COCCO[C@@H](Cn1c(=O)n(C(C)(C)C(=O)NC2CCC2)c(=O)c2c(C)c(-n3cccn3)sc21)c1cc(F)ccc1OC [Compound I-299]
> 50	≥ 2	> 50	2 (≈ 3.54 µM)	> 50	10 (≈ 17.7 µM)	> 50	10 (≈ 17.7 µM)	–	–	–	–	–	–	–	–	Cc1c(-n2nccn2)sc2c1c(=O)n(C(C)(C)C(=O)NC(C)C)c(=O)n2C[C@H](OCCC#N)c1ccccc1O [Compound I-301]
50 (≈ 87 µM)	2 (≈ 3.48 µM)	50 (≈ 87 µM)	≥ 2	> 50	10 (≈ 17.4 µM)	> 50	0.08 (≈ 0.139 µM)	–	–	–	–	–	–	–	–	CCNC(=O)C(C)(C)n1c(=O)c2c(C)c(C(=O)OCC)sc2n(C[C@H](OCCC#N)c2cc(F)ccc2O)c1=O [Compound I-302]
≥ 2	2 (≈ 3.26 µM)	2 (≈ 3.26 µM)	0.08 (≈ 0.131 µM)	> 50	0.4 (≈ 0.653 µM)	> 50	2 (≈ 3.26 µM)	–	–	–	–	–	–	–	–	CCOC(=O)c1sc2c(c1C)c(=O)n(C(C)(C)C(=O)NC(C)C)c(=O)n2C[C@H](OCC(C)(C)C#N)c1ccccc1OC [Compound I-303]
≥ 10	0.4 (≈ 0.658 µM)	2 (≈ 3.29 µM)	0.08 (≈ 0.132 µM)	> 50	2 (≈ 3.29 µM)	> 50	2 (≈ 3.29 µM)	–	–	–	–	–	–	–	–	CC(=O)Oc1ccccc1[C@H](Cn1c(=O)n(C(C)(C)C(=O)NC(C)C)c(=O)c2c(C)c(-n3nccn3)sc21)OCCC#N [Compound I-304]

More lines, now with the values behind:

SMILES	IC90 [1, 9] [µg/mL]	IC90 [2, 10] [µg/mL]	IC90 [3, 11] [µg/mL]	IC90 [4, 12] [µg/mL]	IC90 [5, 13] [µg/mL]	IC90 [6, 14] [µg/mL]	IC90 [7, 15] [µg/mL]	IC90 [8, 16] [µg/mL]	IC90 ([1]; concentration sufficient to ≥90% inhibition of growth, 48 hours vs 2% DMSO control, read-out: Compound Concentration (ppm) for ≥90% inhibition, Dm) [µg/mL]	IC90 ([2]; concentration sufficient to ≥90% inhibition of growth, 48 hours vs 2% DMSO control, read-out: Compound Concentration (ppm) for ≥90% inhibition, Fv) [µg/mL]	IC90 ([3]; concentration sufficient to ≥90% inhibition of growth, 48 hours vs 2% DMSO control, read-out: Compound Concentration (ppm) for ≥90% inhibition, Cg) [µg/mL]	IC90 ([4]; concentration sufficient to ≥90% inhibition of growth, 48 hours vs 2% DMSO control, read-out: Compound Concentration (ppm) for ≥90% inhibition, Fm) [µg/mL]	IC90 ([5]; concentration sufficient to ≥90% inhibition of growth, 48 hours vs 2% DMSO control, read-out: Compound Concentration (ppm) for ≥90% inhibition, St) [µg/mL]	IC90 ([6]; concentration sufficient to ≥90% inhibition of growth, 48 hours vs 2% DMSO control, read-out: Compound Concentration (ppm) for ≥90% inhibition, Bc) [µg/mL]	IC90 ([7]; concentration sufficient to ≥90% inhibition of growth, 48 hours vs 2% DMSO control, read-out: Compound Concentration (ppm) for ≥90% inhibition, Pc) [µg/mL]	IC90 ([8]; concentration sufficient to ≥90% inhibition of growth, 48 hours vs 2% DMSO control, read-out: Compound Concentration (ppm) for ≥90% inhibition, Rs) [µg/mL]
COc1ccc(F)cc1[C@@](O)(CCO)Cn1c(=O)n(C(C)(C)C(=O)NC(C)C)c(=O)c2c(C)c(-n3nccn3)sc21 [Compound I-276]	2 (≈ 3.4 µM)	2 (≈ 3.4 µM)	2 (≈ 3.4 µM)	0.4 (≈ 0.68 µM)	> 50	2 (≈ 3.4 µM)	10 (≈ 17 µM)	0.08 (≈ 0.136 µM)	–	–	–	–	–	–	–	–
Cc1c(-n2nccn2)sc2c1c(=O)n(C(C)(C)C(=O)NC(C)C)c(=O)n2C[C@H](OC(C)C)c1cc(F)ccc1CCC#N [Compound I-277]	2 (≈ 3.28 µM)	0.08 (≈ 0.131 µM)	0.4 (≈ 0.656 µM)	0.08 (≈ 0.131 µM)	> 50	0.4 (≈ 0.656 µM)	> 50	0.08 (≈ 0.131 µM)	–	–	–	–	–	–	–	–
Cc1c(-n2nccn2)sc2c1c(=O)n(C(C)(C)C(=O)NC(C)C)c(=O)n2C[C@H](OCC(C)(C)O)c1cc(F)ccc1OCC#N [Compound I-278]	2 (≈ 3.12 µM)	2 (≈ 3.12 µM)	0.4 (≈ 0.623 µM)	0.4 (≈ 0.623 µM)	> 50	2 (≈ 3.12 µM)	10 (≈ 15.6 µM)	0.4 (≈ 0.623 µM)	–	–	–	–	–	–	–	–
CCc1ccc(F)cc1[C@H](Cn1c(=O)n(C(C)(C)C(=O)NC(C)C)c(=O)c2c(C)c(-n3nccn3)sc21)OCC(C)(C)C#N [Compound I-279]	2 (≈ 3.21 µM)	0.08 (≈ 0.128 µM)	0.08 (≈ 0.128 µM)	0.08 (≈ 0.128 µM)	> 50	0.08 (≈ 0.128 µM)	> 50	0.08 (≈ 0.128 µM)	–	–	–	–	–	–	–	–
CCc1ccc(F)cc1[C@H](Cn1c(=O)n(C(C)(C)C(=O)NC(C)C)c(=O)c2c(C)c(-n3nccn3)sc21)O[C@H]1C[C@@H](O)C1 [Compound I-280]	2 (≈ 3.26 µM)	0.4 (≈ 0.653 µM)	2 (≈ 3.26 µM)	0.08 (≈ 0.131 µM)	≥ 50	2 (≈ 3.26 µM)	50 (≈ 81.6 µM)	0.08 (≈ 0.131 µM)	–	–	–	–	–	–	–	–
Cc1c(-n2nccn2)sc2c1c(=O)n(C(C)(C)C(=O)NC(C)C)c(=O)n2C[C@H](OCCC#N)c1cc(F)ccc1O [Compound I-282]	≥ 10	2 (≈ 3.43 µM)	2 (≈ 3.43 µM)	0.4 (≈ 0.685 µM)	> 50	2 (≈ 3.43 µM)	10 (≈ 17.1 µM)	0.4 (≈ 0.685 µM)	–	–	–	–	–	–	–	–
Cc1c(-n2cccn2)sc2c1c(=O)n(C(C)(C)C(=O)NC(C)C)c(=O)n2C[C@H](OCCC#N)c1cc(F)ccc1O [Compound I-283]	> 50	10 (≈ 17.2 µM)	50 (≈ 85.8 µM)	2 (≈ 3.43 µM)	> 50	10 (≈ 17.2 µM)	> 50	2 (≈ 3.43 µM)	–	–	–	–	–	–	–	–
COc1ccc(F)cc1[C@H](Cn1c(=O)n(C(C)(C)C(=O)NC(C)C)c(=O)c2c(C)c(-n3cccn3)sc21)OCCS(C)(=O)=O [Compound I-286]	≥ 50	2 (≈ 3.08 µM)	2 (≈ 3.08 µM)	2 (≈ 3.08 µM)	> 50	2 (≈ 3.08 µM)	≥ 50	2 (≈ 3.08 µM)	–	–	–	–	–	–	–	–
